B1: rsELAM1: portion of the extracellular domain of ELAM1 encoded by nucleotides 141 to 1790 of FIG. 1 (protein, UniProt P16581 22-556, looked up)
extracellular domain: WSYNTSTEAMTYDEASAYCQQRYTHLVAIQNKEEIEYLNSILSYSPSYYWIGIRKVNNVWVWVGTQKPLTEEAKNWAPGEPNNRQKDEDCVEIYIKREKDVGMWNDERCSKKKLALCYTAACTNTSCSGHGECVETINNYTCKCDPGFSGLKCEQIVNCTALESPEHGSLVCSHPLGNFSYNSSCSISCDRGYLPSSMETMQCMSSGEWSAPIPACNVVECDAVTNPANGFVECFQNPGSFPWNTTCTFDCEEGFELMGAQSLQCTSSGNWDNEKPTCKAVTCRAVRQPQNGSVRCSHSPAGEFTFKSSCNFTCEEGFMLQGPAQVECTTQGQWTQQIPVCEAFQCTALSNPERGYMNCLPSASGSFRYGSSCEFSCEQGFVLKGSKRLQCGPTGEWDNEKPTCEAVRCDAVHQPPKGLVRCAHSPIGEFTYKSSCAFSCEEGFELHGSTQLECTSQGQWTEEVPSCQVVKCSSLAVPGKINMSCSGEPVFGTVCKFACPEGWTLNGSAARTCGATGHWSGLLPTCEAPTESNIP
modifications: extracellular domain

How the values were obtained:
[1] = biological target: T1, 1,3-fucosyl transferase in extracts from CHO cells transfected with clone 7.2 (Homo sapiens, UniProt P22083); test: fucosyl transferase enzyme assay: linking 14C-fucose to acceptor molecules; type: biochemical; settings: for Efficiency of Fucosylation: enzyme freshly produced from transfected CHO cells, 1 hour at 37° C; for linking of fucose to acceptor by the induced enzyme: extract of CHO cells transfected with clone 7.2
T1 construct: expressed in transfected cells; host or cells: CHO cells transfected with clone 7.2; Triton X-100 lysate
T1 sequence (P22083 1-405 isoform P22083-2): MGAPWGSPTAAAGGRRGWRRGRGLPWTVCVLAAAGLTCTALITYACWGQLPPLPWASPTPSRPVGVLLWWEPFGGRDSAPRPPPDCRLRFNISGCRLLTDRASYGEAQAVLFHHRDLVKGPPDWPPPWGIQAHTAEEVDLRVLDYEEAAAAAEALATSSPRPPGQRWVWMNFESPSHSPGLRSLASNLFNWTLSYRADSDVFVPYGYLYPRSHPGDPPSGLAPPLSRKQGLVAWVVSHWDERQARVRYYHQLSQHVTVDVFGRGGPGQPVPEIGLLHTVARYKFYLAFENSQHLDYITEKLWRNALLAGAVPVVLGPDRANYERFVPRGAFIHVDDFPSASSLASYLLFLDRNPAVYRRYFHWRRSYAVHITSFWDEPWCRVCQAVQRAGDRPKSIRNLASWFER
Protocol: The assays tested the ability of the enzyme to link radioactively labelled fucose to an acceptor molecule. We performed the assays as follows.
We prepared assay samples containing 10 μl enzyme, 8 μl cocktail and 2 μl 10×acceptor. We prepared the enzyme by isolating about 1.5 million CHO cells transfected with clone 7.2 and lysing them by sonication for 15 seconds in 150 μl ice-cold 1% Triton X-100 in water. The cocktail contained 75 μM ^14C-GDP fucose, 100 mM ATP, 500 mM L-fucose, 1 M MnCl2 and 1 M cacodylate at pH 6.2. 10×acceptor contained, variously, 200 mM LacNAc, Lac-N-biose, or lactose, 250 mM phenyl-β-D-galactoside, or 50 mM 2′-fucosyllactose. We incubated the assay samples for 1 hour at 37° C. We stopped the reaction by addition of 20 μl ethanol. We diluted the sample with 560 μl water and centrifuged in an EPPENDORF centrifuge for 5 minutes at high speed.
We had prepared a DOWEX 1×2-400 column (Sigma Chemical Co.) to separate the unconverted ^14C fucose-GDP from the converted. We loaded the matrix into a large column and washed it with 10 volumes of iN NaOH, followed by 5 volumes of water, followed by 10 volumes of 5% concentrated formic acid. Then we repeated this wash cycle. We used this material to create small columns of 0.4 ml. We prepared the small columns for use by washing them with 10 volumes of water.
We loaded 200 μl of the sample onto the small column, collected the eluate, rinsed with 2 ml water and collected it into the eluate. We determined the radioactivity of this eluate by scintillation counting.

HL-60 cells; RAMOS cells = test: cell binding to rsELAM1-coated plates; type: cell-based, human
Protocol: To a 6 cm diameter Petri dish of bacteriologic plastic (e.g., Falcon 110070) we added 2.5 ml of 50 mM Tris buffer, pH 9.5. To this we added 10 μg of pure rsELAM1. We incubated the plate for 60 minutes at room temperature to allow the rsELAM1 to bind to the plate. Then we aspirated the medium and replaced it with PBS containing 10 mg/ml bovine serum albumin. We incubated the plates overnight at 40 in this solution to block remaining protein binding sites on the plates. We warmed the plates to room temperature, washed them with medium containing 10% fetal calf serum, and incubated them with 2 ml of cells (2×10^6 ml^−1) for 20 minutes. We aspirated the medium and washed the plates twice with 3 ml each of medium (RPMI 1640 with 10% serum). Then we examined the plates by microscopy.
A second assay would test the ability of a small molecule to inhibit cell binding to ELAM itself. We have developed such an assay with rsELAM1 which works in 96 well microtiter plates. These plates, made of bacteriologic plastic (e.g. Linbro/Titertek #76-232-050), are incubated with 0.5 μg per well of rsELAM1 in 50 μl of 15 mM sodium carbonate/35 mM sodium bicarbonate, pH 9.2, overnight at 40. The plates are then blocked for one hour at room temperature with PBS containing 10 mg/ml of bovine serum albumin, and then adhesion assays performed as described in Example VIII using, e.g., HL-60 cells, 2×10^6/ml, 50 μl per well. Under these conditions HL-60 cells bind well to rsELAM1, providing a convenient microassay for screening. One would identify inhibitors by their ability to inhibit HL-60 binding to the plate. Alternatively, one could use an ELAM ligand in this assay, using as the probe a cell line that stably expresses an ELAM.

Molecule | Efficiency of Fucosylation [1] | linking of fucose to acceptor by the induced enzyme [1] | binding of HL-60 cells to rsELAM1 in 96 well microtiter plates (HL-60 cells; RAMOS cells; 0.5 μg per well rsELAM1, HL-60 2×10^6/ml, 50 μl per well) | binding of HL-60 cells to rsELAM1-coated plates (HL-60 cells; RAMOS cells; 6 cm Petri dish, 10 μg rsELAM1) | binding of RAMOS cells to rsELAM1-coated plates (HL-60 cells; RAMOS cells; 6 cm Petri dish, 10 μg rsELAM1)
CC(=O)N[C@H]1C(O)O[C@H](CO)[C@@H](O[C@@H]2O[C@H](CO)[C@H](O)[C@H](O)[C@H]2O)[C@@H]1O (some centres unmarked) [LacNAc] | 1110 picomoles/mg Total protein · h | linked fucose | – | – | –
OC[C@H]1O[C@@H](O[C@H]2[C@H](O)[C@@H](O)C(O)O[C@@H]2CO)[C@H](O)[C@@H](O)[C@H]1O (some centres unmarked) [Lactose, lactose] | 290 picomoles/mg Total protein · h | linked fucose | – | – | –
CC(=O)N[C@@H]1[C@@H](O[C@@H]2O[C@H](CO)[C@H](O)[C@H](O)[C@H]2O)[C@H](O)[C@@H](CO)O[C@@H]1O [Lac-N-Biose, Lac-N-biose] | 76 picomoles/mg Total protein · h | did not link fucose | – | – | –
OC[C@H]1O[C@@H](Oc2ccccc2)[C@H](O)[C@@H](O)[C@H]1O [PhβDgal, phenyl-β-D-galactoside] | Not detectable | did not link fucose | – | – | –
B1 | – | – | bind well | bind to rsELAM1-coated plates | do not bind to these plates
